Test results reported in ChEMBL document CHEMBL4368892, “Isatin and its derivatives: a survey of recent syntheses, reactions, and applications” (Medchemcomm, 2019).

What follows are compounds tested on LoVo (assay: Antiproliferative activity against human LoVo cells by WST-1 assay).
Format: functional, cell-based

| SMILES | IC50 |
| --- | --- |
| Cc1ccc2nc(SCC(=O)N/N=C3\C(=O)Nc4ccccc43)n(-c3ccccc3)c(=O)c2c1 | 9.91 to 17.9 µM |
| Cc1ccc2nc(SCC(=O)N/N=C3\C(=O)Nc4ccc([N+](=O)[O-])cc43)n(Cc3ccccc3)c(=O)c2c1 | 9.91 to 17.9 µM |
| Cc1ccc2nc(SCC(=O)N/N=C3\C(=O)Nc4ccccc43)n(Cc3ccccc3)c(=O)c2c1 | 9.91 to 17.9 µM |
| Cc1ccc2nc(SCC(=O)N/N=C3\C(=O)Nc4ccc(Cl)cc43)n(-c3ccccc3)c(=O)c2c1 | 9.91 to 17.9 µM |
| O=C(CSc1nc2ccccc2c(=O)n1Cc1ccccc1)N/N=C1\C(=O)Nc2ccc([N+](=O)[O-])cc21 | 9.91 to 17.9 µM |
| O=C(CSc1nc2ccccc2c(=O)n1CCc1ccccc1)N/N=C1\C(=O)Nc2ccccc21 | 9.91 to 17.9 µM |
| Cc1ccc2nc(SCC(=O)N/N=C3\C(=O)Nc4ccc([N+](=O)[O-])cc43)n(-c3ccccc3)c(=O)c2c1 | 9.91 to 17.9 µM |
| O=C(CSc1nc2ccccc2c(=O)n1CCc1ccccc1)N/N=C1\C(=O)Nc2ccc(Cl)cc21 | 9.91 to 17.9 µM |
| O=C(CSc1nc2ccccc2c(=O)n1-c1ccccc1)N/N=C1\C(=O)Nc2ccc([N+](=O)[O-])cc21 | 9.91 to 17.9 µM |
| Cc1ccc2nc(SCC(=O)N/N=C3\C(=O)Nc4ccc(F)cc43)n(Cc3ccccc3)c(=O)c2c1 | 9.91 to 17.9 µM |
| Cc1ccc2nc(SCC(=O)N/N=C3\C(=O)Nc4ccc(F)cc43)n(-c3ccccc3)c(=O)c2c1 | 9.91 to 17.9 µM |
| O=C(CSc1nc2ccccc2c(=O)n1-c1ccccc1)N/N=C1\C(=O)Nc2ccc(Cl)cc21 | 9.91 to 17.9 µM |
| O=C(CSc1nc2ccccc2c(=O)n1CCc1ccccc1)N/N=C1\C(=O)Nc2ccc(F)cc21 | 9.91 to 17.9 µM |
| Cc1ccc2nc(SCC(=O)N/N=C3\C(=O)Nc4ccc(Cl)cc43)n(Cc3ccccc3)c(=O)c2c1 | 9.91 to 17.9 µM |

These compounds were tested against Histone deacetylase (assay: Inhibition of HDAC (unknown origin)).
Format: protein assay, Homo sapiens

| SMILES | IC50 |
| --- | --- |
| O=C(CNC(=S)N/N=C1\C(=O)Nc2ccc(Cl)cc21)NO | 0.97 µM |
